Experimental findings from publication PMC4245162 (ACS Chemical Biology, 2014) are described below.

This assay deals with T1, SETD8 (Homo sapiens, UniProt Q9NQR1).
T1 sequence (Q9NQR1 191-352 isoform Q9NQR1-2): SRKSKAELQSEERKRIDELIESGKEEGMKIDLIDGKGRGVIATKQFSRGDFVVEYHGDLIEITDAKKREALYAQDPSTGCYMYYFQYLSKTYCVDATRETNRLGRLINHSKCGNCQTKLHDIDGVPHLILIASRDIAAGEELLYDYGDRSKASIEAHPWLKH
The experiment in a line: secondary radiometric filter paper assay, SETD8. In kind it is biochemical. The conditions noted are these: read-out: IC50 against SETD8; apparent IC50; SAM/peptide/enzyme = 0.75:1.5:1.

For `O=C1C(SCCO)=C(SCCO)C(=O)c2ccccc21` [NSC95397], the IC50 stood at 82 µM.

The IC50 is the concentration that gives 50% inhibition.
